In the assay the target is Horse Cytochrome c (Equus caballus, UniProt P00004). The assay can be described thus: Micro calorimetry titration of Cytochrome c. The settings on record: micro calorimetry titration (FIG. 9); read-out: association constant (converted). The assay is classed as binding. An excerpt: FIG. 9 illustrates a micro calorimetry titration of Cytochrome c with a preferred embodiment of the present invention.
Horse Cytochrome c is an electron-transferring protein with a heme prosthetic group. The size of this protein is 12,384 Dalton and the surface is highly positively charged with lysine and arginine residues. For the X-ray crystal structure of Cytochrome c, see: Bushnell, G. W.; Louie, G. D.; Brayer, G. D. J. Mol. Biol. 1990, 214, 585. NMR titration of Cytochrome c with a preferred embodiment of the invention, designated 1 below, was performed under the condition described in FIG. 8 and two of the hyperfine region protons from heme in Cytochrome c, heme 8-CH3 and heme 3-CH3, were followed. […] The direction and the size of shifts are about the same as those of the titration between Cytochrome c and Cytochrome c peroxydase and peak broadening was also observed in the peroxydase titration. For NMR titration of cytochrome c and cytochrome-c peroxydase, see: Satterlee, J. D.; Moench, S. J.; Erman, J. E. Biochemica et Boiphysica Acta 1987, 912, 87-97. FIG. 8 is consistent with 1:1 binding. [drawing 1] Micro calorimetry titration of Cytochrome c with 1 was also performed (see FIG. 9). The association constant was calculated as 136000M^-1 therefore ΔG=-7.0 kcal/mol. As the enthalpy of the binding event is simulated as -5.6 kcal/mol, the entropy portion should be -1.4 kcal/mol. […]

Sequence of Horse Cytochrome c (P00004 whole entry): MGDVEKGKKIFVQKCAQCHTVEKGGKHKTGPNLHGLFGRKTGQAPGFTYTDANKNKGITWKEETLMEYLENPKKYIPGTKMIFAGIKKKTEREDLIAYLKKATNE

For `CCCCOc1c2cc(C(=O)Nc3cc4cc(c3)C(=O)NCC(=O)N[C@@H](CC(=O)O)C(=O)NCC(=O)N[C@@H](CC(=O)O)C(=O)NC4)cc1Cc1cc(C(=O)Nc3cc4cc(c3)C(=O)NCC(=O)N[C@@H](CC(=O)O)C(=O)NCC(=O)N[C@@H](CC(=O)O)C(=O)NC4)cc(c1OCCCC)Cc1cc(C(=O)Nc3cc4cc(c3)C(=O)NCC(=O)N[C@@H](CC(=O)O)C(=O)NCC(=O)N[C@@H](CC(=O)O)C(=O)NC4)cc(c1OCCCC)Cc1cc(C(=O)Nc3cc4cc(c3)C(=O)NCC(=O)N[C@@H](CC(=O)O)C(=O)NCC(=O)N[C@@H](CC(=O)O)C(=O)NC4)cc(c1OCCCC)C2` [compound 1, Calix[4]arenetetracyclicpeptide1], the Kd was 7.35 µM.

The values above are taken from patent publication US5770380A (priority 1996, dated 1998).
